Measurements as given in publication PMC2851739 (General and comparative endocrinology, 2009).
Ends that are not written are not given here.

System: AeaETHRs
Experiment: flash luminescence
Assay type: cell-based, Aedes aegypti
Conditions: peptides with related sequences

Substance	activity when tested at 10 μM
ghrelin (GSSFLSPEHQRVQQRKESKKPPAKLQPR; ends and bridges not checked; UniProt Q9UBU3 24-51, looked up)	inactive
FMRFamide	inactive
corazonin (QTFQYSRGWTN; ends and bridges not checked; UniProt Q26377 20-30, looked up)	inactive
